One data set deals with mGluR7 (Homo sapiens, UniProt Q14831). As to conditions: Yanamala et al., 2008; cited from earlier work.
Another data set can be described thus: in vitro. The source says: (§1) The analyzed parameters were: specific permeability (Sp), this is an indicator of the compound's ability to cross the hematoencephalic barrier (HEB) by passive diffusion, and the partition coefficient (LogP), which corresponds to the partition coefficient of the compound between Octanol and the pH 7.4 phosphate tampon, which is a predictive element for the compound's penetration of the HEB.
The Parallel Artificial Membrane Permeability assay (PAMPA) is based on the ability of compounds to diffuse from a donor compartment through a Polyvinylidene Fluoride Membrane Filter (PVDF) covered with a phosphatidylcholine solution at 20% towards a second acceptor compartment, which is analyzed. […] The quantification was carried out by means of spectrophotometry, using pans 1 mm in length and with a capacity of 300 uL.

The target of data set [1] is Aβ1-42 Peptide Aggregates (Homo sapiens, UniProt P05067). The experiment in a line: ^3H-Astemizole saturation binding to Aβ1-42 peptide aggregates.
In data set [2] the test system is neurofibrillary tangles (NFTs). The experiment in a line: Fixation in neurofibrillary tangles in postmortem brain sections of Alzheimer patients. As to conditions: co-localization with PHF-1 antibody, tritiated or fluorescent marking.
Experimental: This evaluation was carried out by means of immunohistochemistry with antibodies specific for senile plaque, 6E10 antibody reactive against 6-13 residues of Aβ peptide, and the tau-specific PHF1 antibody.
In short, postmortem brains of patients with a proven clinical diagnosis of Alzheimer's Disease are set in formalin at 10%, with slices with sections varying from 5 to 200 μm made, preferably with 20 μm. These slices are incubated in benzimidazoles marked pursuant to the present invention and afterwards incubated with the specific 6E10 and PHF1 antibodies to determine the co-localization of the marker in the tau protein structures of the cerebral sections under study.
For practical purposes and as part of the examples, the co-localization of marked tau with fluorophore conjugate antibodies with the localization of the fluorescently marked drug is analyzed. The co-localization of both drugs with the tau aggregated structures in the hippocampus region, entorhinal cortex and nucleous of Meynert in the postmortem brains with Alzheimer's Disease was reviewed.
Data set [3] relates to human tau protein aggregates (PHFs). As to the kind of experiment: ^3H-Astemizole saturation binding to tau protein aggregates. As to conditions: for Bmax/Kd Index: Tau Protein Aggregates (PHF).
For data set [4] the following is noted: rat, in vivo, iv.
A further data set is described as follows: in vivo. As to conditions: male, C2 albino, rat, iv.
Data set [5] in a line: Partition coefficient octanol / pH 7.4 tampon. To be noted: for LogP Coefficient: octanol / pH 7.4 tampon, 25° C.; for CNS LogP: partition coefficient in relation to ability to cross the HEB. On the procedure:
as §1
Briefly, the partition coefficient (log Po/w) was determined in a pH 7.4 tampon solution, adjusted with 0.1 M sodium hydroxide. The organic phase utilized octanol saturated with the pH 7.4 tampon solution. A 1 mg/mL solution of the drug in methanol was prepared. Dilutions with concentrations ranging from 0.02 to 0.4 mg/mL were prepared from these solutions. Then […] portions were taken from each of these previously prepared stock solutions in 25 mL volumetric flasks, with the volume completed with the tampon pH 7.4. 25 ml of octanol where then measured and placed in three decantation funnels, with the previously prepared solutions added to each, mixing both phases by vigorous agitation during two minutes. […] Both phases are separated once equilibrium had been reached. The aqueous phase was centrifuged during 3 minutes to ensure complete separation of the phases. The entire process was carried out at a temperature of 25° C. The quantification was carried out with a UVN spectrophotometer.

A further data set deals with Aβ Fibers (Homo sapiens, UniProt P05067). To be noted: Okamura et al., 2005; cited from earlier work.
The target in the next data set is Tau Filaments in Vitro (Homo sapiens, UniProt P10636). As to the kind of experiment: ^3H-Astemizole displacement test, tau filaments in vitro.
In the next data set the target is Alzheimer PHF (Homo sapiens, UniProt P10636). The experiment in a line: ^3H-Astemizole displacement test, Alzheimer PHF.
Data set [6] is described as follows: In vivo pharmacokinetics in blood and cerebral tissue (HPLC/UV). As to conditions: male, C2 albino, rat, iv, astemizole 16 mg/kg, lansoprazole 8 mg/kg.
Setting [7] is: saturation test, Tau Protein Aggregates.

Read-outs that look alike come from different tables or passages of the source.

This is an account of results in patent US8916132B2, “Benzimidazole-derived compounds use as markers in the case of neurodegenerative diseases” (Servicios Cientificos Neuroinnovation Ltda, priority 2008, dated 2014).

Sequence of Aβ1-42 Peptide Aggregates (P05067 672-713): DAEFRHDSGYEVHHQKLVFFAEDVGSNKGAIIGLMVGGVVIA
Sequence of Alzheimer PHF (P10636 623-758 limits assumed): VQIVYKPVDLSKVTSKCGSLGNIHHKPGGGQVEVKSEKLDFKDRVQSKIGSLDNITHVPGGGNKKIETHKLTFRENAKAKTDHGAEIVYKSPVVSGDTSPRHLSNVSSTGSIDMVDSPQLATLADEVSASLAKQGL
Sequence of Tau Filaments in Vitro (P10636 1-441 isoform P10636-8): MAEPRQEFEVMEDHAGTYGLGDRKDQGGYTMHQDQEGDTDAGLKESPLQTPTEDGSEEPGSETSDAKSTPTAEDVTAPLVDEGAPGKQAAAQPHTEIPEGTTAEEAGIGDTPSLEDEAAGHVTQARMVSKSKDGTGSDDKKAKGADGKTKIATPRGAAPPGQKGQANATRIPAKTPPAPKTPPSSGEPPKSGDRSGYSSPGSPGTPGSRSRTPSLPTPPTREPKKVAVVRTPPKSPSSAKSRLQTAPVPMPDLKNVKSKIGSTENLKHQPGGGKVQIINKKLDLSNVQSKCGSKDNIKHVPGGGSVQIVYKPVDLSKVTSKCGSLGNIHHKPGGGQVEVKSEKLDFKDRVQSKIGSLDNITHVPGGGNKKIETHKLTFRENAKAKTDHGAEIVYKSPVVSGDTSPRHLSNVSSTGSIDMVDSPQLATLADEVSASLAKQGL
Sequence of mGluR7 (Q14831 35-915): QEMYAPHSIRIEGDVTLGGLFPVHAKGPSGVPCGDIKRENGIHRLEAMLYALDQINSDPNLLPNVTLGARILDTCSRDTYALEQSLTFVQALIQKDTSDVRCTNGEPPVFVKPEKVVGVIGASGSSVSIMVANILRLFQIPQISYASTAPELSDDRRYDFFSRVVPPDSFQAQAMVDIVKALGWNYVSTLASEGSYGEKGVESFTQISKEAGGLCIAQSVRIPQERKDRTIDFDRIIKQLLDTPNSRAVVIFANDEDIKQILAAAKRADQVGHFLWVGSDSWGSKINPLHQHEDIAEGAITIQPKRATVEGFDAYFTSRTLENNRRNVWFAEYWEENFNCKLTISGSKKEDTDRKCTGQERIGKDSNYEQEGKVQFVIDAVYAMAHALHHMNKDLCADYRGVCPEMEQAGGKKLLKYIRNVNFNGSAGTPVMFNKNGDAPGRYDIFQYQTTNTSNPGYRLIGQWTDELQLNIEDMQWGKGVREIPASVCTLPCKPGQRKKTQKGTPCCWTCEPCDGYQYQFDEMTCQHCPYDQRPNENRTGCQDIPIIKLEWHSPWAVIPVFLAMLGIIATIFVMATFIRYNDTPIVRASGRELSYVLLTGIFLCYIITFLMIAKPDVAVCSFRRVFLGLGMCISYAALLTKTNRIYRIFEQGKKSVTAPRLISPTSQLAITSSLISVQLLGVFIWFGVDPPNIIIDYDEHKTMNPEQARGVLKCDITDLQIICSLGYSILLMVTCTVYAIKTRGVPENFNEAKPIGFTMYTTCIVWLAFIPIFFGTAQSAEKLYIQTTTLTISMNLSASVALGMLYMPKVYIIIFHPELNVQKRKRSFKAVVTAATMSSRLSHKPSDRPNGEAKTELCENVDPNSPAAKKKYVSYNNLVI
Sequence of Aβ Fibers (P05067 672-713 limits assumed): as the sequence (P05067 672-713) above

Consider `c1ccc(C(NCCNC(c2ccccc2)c2ccccc2)c2ccccc2)cc1` [AMN82], for which, on mGluR7, the “Binding Energies Autodock” value is -7.56 kcal/mol.

As for `COc1ccc(CCN2CCC(Nc3nc4ccccc4n3Cc3ccc(F)cc3)CC2)cc1` [Astemizole], the “CNS Transport” value in “in vitro” (PAMPA) is “Positive”. Further, the apparent permeability coefficient (Papp) (commonly a coefficient for how fast a substance crosses the barrier) in the data set “in vitro” (PAMPA) was 147 ×10⁻⁶ cm/s. The results for the “Bmax/Kd Index” value in data set [1] and in data set [3] were 0.057 and 3.316, respectively. Further, the “marking of tau aggregates / NFTs in postmortem AD brain sections” value in [2] was “bond to the NFTs structures”; in data set [2] (listed as astemizole), “efficiently and selectively mark those sectors positive for tau”. For the same compound, the “average life in plasma compared with brain” value in [4] is on record as “less than in the brain”. In addition, the time to peak (Tmax) – broadly, the time at which the peak concentration occurs – in the data set “in vivo” (maximum concentration (Tmax) in blood) is 28 min; in the data set “in vivo” (maximum concentration (Tmax) in the brain), 55 min. Also, the “LogP Coefficient” value in data set [5] amounted to 5.57. Besides, the “CNS LogP” value in [5] is “Favorable”.

As to `CNc1ccc(/C=C/c2nc3ccc(OCCF)cc3o2)cc1` [BF168], the Ki (in general, a dissociation constant, usually derived from enzyme kinetics or from competition with a known ligand) on Aβ Fibers is 6.4 nM.

In the case of `C[N+]12CCC(CC1)C(OC(=O)C(O)(c1ccccc1)c1ccccc1)C2` (centres unmarked) [Clidinium Bromide], in the data set “in vitro”, the “CNS Transport” value was “Negative” and the Papp is 0.029 ×10⁻⁶ cm/s. In data set [5], the “LogP Coefficient” value is −0.092 and the “CNS LogP” value is reported as “Unfavorable”.

In the case of `Cc1c(OCC(F)(F)F)ccnc1C[S+]([O-])c1nc2ccccc2[nH]1` (centres unmarked) [Lansoprazole], the “CNS Transport” value in “in vitro” (PAMPA) is “Positive”. Further, the “Coefficient (Sp) specific permeability” value in the data set “in vitro” (PAMPA) turned out to be 3.63E−05. Also, the results for the Ki at Tau Filaments in Vitro and on Alzheimer PHF were 2.7 nM and 833 nM, respectively. Besides, the “marking of tau aggregates / NFTs in postmortem AD brain sections” value in [2] was “bond to the NFTs structures”; in data set [2] (listed as Lansoprazol) it was “fluorescent staining of Tau protein aggregates”; in data set [2] (listed as lansoprazole), “efficiently and selectively mark those sectors positive for tau”. In addition, the Tmax in data set [6] (brain (cerebral tissue), maximum concentration (Tmax) in the brain, cerebral tissue) is 37 min; in [6] (whole blood (intracardiac), maximum concentration (Tmax) in blood, intracardiac blood), 30 min. Moreover, the “persistency in the encephalon / brain” value in data set [4] (male, C2 albino) is given as “at least 3 hours”. In [4], the “average life in plasma compared with brain” value was “less than in the brain”.

Consider `CCCC(C)C1(CC)C(=O)NC(=S)NC1=O` (centres unmarked) [Thiopental], for which, in “in vitro”, the apparent permeability (Papp) turned out to be 17 ×10⁻⁶ cm/s. The “LogP Coefficient” value in [5] is 1.4.

As for `COc1ccc(CCN2CCC(Nc3nc4ccccc4n3Cc3ccc(F)cc3)CC2)cc1` [^3H-Astemizole], the equilibrium dissociation constant (Kd) (commonly the free concentration of one partner at which half of the binding sites on the other are occupied at equilibrium, for simple one-to-one binding) in data set [1] (saturation test) came to 2.1 nM; in [3] (setting [7]), 3.94 nM.

For `[3H]C([3H])([3H])Oc1ccc(CCN2CCC(Nc3nc4ccccc4n3Cc3ccc(F)cc3)CC2)cc1` [^3H-Astemizole], the “Bmax/Kd Index” value in data set [1] is 0.057; in [3] it was 3.316. The results for the Bmax in data set [1] (saturation test) and in [3] (setting [7]) were 0.12 pmol/nmol Aβ1-42 and 13.07 nM, respectively. Moreover, in data set [3] (at low concentrations, FIG. 7), the “binding affinity to tau protein aggregate forms compared with Aβ” value was “greater binding affinity to tau protein aggregate forms than to Aβ”.

On to `Cc1c(OCC(F)(F)[18F])ccnc1C[S+]([O-])c1nc2ccccc2[nH]1` (centres unmarked) [^18F-Lansoprazole], for which the brain/blood bio-distribution relation is, setting by setting: (at 30 minutes) 0.23; (at 60 minutes) 1.27. Also, the reaches the brain came to 0.3% (at 30 minutes) and 0.14% (at 60 minutes).
